# Measurements published in patent US20190091168A1, “FORMULATION FOR ENHANCED TRANSDERMAL ABSORPTION OF DRUG” (UNIST(ULSAN NATIONAL INSTITUTE OF SCIENCE AND TECHNOLOGY), priority 2017, published 2019).
# Key:
# Assay type in all cases: in vivo
# monomer/oligomer Aβ = assay: Monomer/oligomer Aβ expression in skin tissue after oral administration (fluorescence imaging); details: 100 μg/Kg/0.1 ml twice a week, 2 months, APP/PS/Tau mouse
# [1] = system: dementia mouse model APP/PS/Tau; assay: Morris water maze test in dementia mouse model; details: for mean escape latency: 100 μg/kg twice a week for 2 months
# Excerpt: (§1) APP/PS/Tau was purchased as a dementia mouse model from Jackson lab (BAR HARBOR, USA), and APP/Tau female and APP/PSen1de9 purchased from Taconic (Hudson, USA) were cross-mated for 6 generations, and 4-month-old mouse models were obtained from F1.
# In order to examine therapeutic effects of the benzene diamine derivative of the present disclosure on dementia, enhancement of spatial cognition and memory in dementia mouse models were investigated. For this investigation, a Morris water maze (Harvard Apparatus, USA) test was performed.
# In detail, a water maze composed of a stainless steel pool with a diameter of 150 cm×a height of 60 cm and an escape platform (10 cm in diameter, 30 cm in height) was filled with water at […], and the height was 2 cm above the platform such that when a mouse sat on the escape platform, the body was allowed to come out of the water. […] Escape latency was measured as the time taken for the experimental animal to go to the escape platform when the experimental animal went to the escape platform and stayed thereon for more than 20 seconds. This test was performed three times a day, and a mean value was determined as mean escape latency. The escape latency was recorded on the computer program (Smart Video Tracking System V3.0, PanLab SL, Barcelona, Spain) by installing a camera on the ceiling above the water tank. The experiment was performed three times a day for 6 days, and at this time, the possibility of accidentally visiting the escape platform was minimized by sequentially changing the positions of the experimental animals in the water tank. In the experiment, a normal mouse, a control dementia mouse administered with a vehicle (PBS) and an experimental dementia mouse administered with 100 μg/kg of N^1-(pyridin-2-ylmethyl)benzene-1,4-diamine (Compound 2) twice a week for 2 months were used after completing administration.
# SOX-9 = SOX-9 expression in skin tissue after oral administration (fluorescence imaging); details: 100 μg/Kg/0.1 ml twice a week, 2 months, APP/PS/Tau mouse
# Experimental: (§2) Accordingly, the present inventors examined whether expressions of hair growth stimulating factors, SOX-2 and SOX-9 were increased in hair loss animal models by the benzene diamine derivatives of the present disclosure. In order to examine SOX-2 and SOX-9 expressions inside skin tissues, APP/PS/Tau mouse which is a hair loss-induced mouse model was selected as a control group and C57BL6 mouse was selected as a normal group, as in Example 5. An experimental group was prepared by orally administering the control group with the benzene diamine derivative at a concentration of 100 μg/Kg/0.1 ml using a zonde twice a week. 2 months later, incision of the skin was performed under local anesthesia, and the skin tissues were fixed in 4% paraformaldehyde solution for 24 hours, and fixed in a plastic mold with O.C.T. Compound (SAKURA, USA) for cryostat sectioning. […] Thereafter, the plate was put on a slide glass and covered with a cover slide, and stored in a dark acrylic box, and fluorescence imaging was observed under a confocal microscope (LSM710, Carl Zeiss, Germany) by 405/488/565 nm laser. […]
# SOX-2 = SOX-2 expression in skin tissue after oral administration (fluorescence imaging); details: 100 μg/Kg/0.1 ml twice a week, 2 months, APP/PS/Tau mouse
# Experimental: as §2
# [2] = system: hair loss mouse model APP/PS/Tau; assay: Hair loss mouse model, oral administration, changes in appearance; details: 100 μg/Kg twice a week for 2 months
# Excerpt: as §1
# In order to examine therapeutic effects of the benzene diamine derivative of the present disclosure on hair loss, the benzene diamine derivative was orally administered to hair loss-induced mouse models, and changes in appearance were examined. The animal model of Experimental Example 2-1 was characterized by appearance of hair loss as well as dementia symptoms. Therefore, the animal model of Experimental Example 2-1 was used as a hair loss mouse model.
# The hair loss mouse models were divided into groups of 6 mice, and among the hair loss mouse models, the control group were orally administered with a phosphate buffer vehicle (PBS) for 2 months, and the experimental group was orally administered with 100 μl of N1-(pyridin-2-ylmethyl)benzene-1,4-diamine (Compound 2) at a concentration of 100 μg/Kg twice a week for 2 months. Thereafter, changes in their appearance were compared.
substance,measurement,setting,value
"N^1-(pyridin-2-ylmethyl)benzene-1,4-diamine [Compound 2]",monomer/oligomer Aβ expression in skin,monomer/oligomer Aβ,decreased
same,mean escape latency,"[1]; at 3 days, compared with dementia control group",significantly short mean escape latency
same,"difference of mean escape latency, control group vs experimental group",[1]; at 4 days,16 s
same,mean escape latency,[1]; at 4 days,26 ± 1 s
same,"difference of mean escape latency, dementia group vs treated group",[1]; at 5 days,19 s
same,mean escape latency,[1]; at 5 days,24 ± 1 s
same,SOX-9 expression in skin,SOX-9,remarkably increased
same,SOX-2 expression in skin,SOX-2,remarkably expressed close to the normal group
same,changes in appearance (hair loss),[2],remarkable improvement in hair loss
